Measured values as given in ChEMBL document CHEMBL5042471, “Development and Application of Subtype-Selective Fluorescent Antagonists for the Study of the Human Adenosine A1 Receptor in Living Cells” (J Med Chem, 2021).
Blank lines part the entries; values can stand above or below the compound they belong to. The source made the active and inactive calls. The calls are words filed in the database; no cut-off is given here.

Key:
Adenosine receptor A1 [1] = target: T1, Adenosine receptor A1 (Homo sapiens, UniProt P30542); assay: Displacement of [3H]DPCPX from human A1 adenosine receptor expressed in Flp-In-CHO cells by radioligand competitive binding assay; format: cell-based
T1 sequence (P30542 whole entry): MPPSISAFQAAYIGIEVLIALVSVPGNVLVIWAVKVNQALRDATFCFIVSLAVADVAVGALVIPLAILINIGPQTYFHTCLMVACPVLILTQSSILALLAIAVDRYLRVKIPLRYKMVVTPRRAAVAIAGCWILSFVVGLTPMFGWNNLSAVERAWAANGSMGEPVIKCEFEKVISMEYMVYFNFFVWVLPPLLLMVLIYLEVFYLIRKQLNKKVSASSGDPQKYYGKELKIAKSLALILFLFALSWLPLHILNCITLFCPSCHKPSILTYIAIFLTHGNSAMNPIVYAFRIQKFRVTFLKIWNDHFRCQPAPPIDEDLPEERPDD

[2] = target: T2, Adenosine receptor A1 (Homo sapiens) (UniProt P30542); assay: Binding affinity to SNAP-tagged-human A1 adenosine receptor expressed in HEK293 cells at 10 nM after 30 mins in presence of SLV320 by confocal microscopy method; format: cell-based
T2 sequence (whole entry): T1 sequence (P30542 whole entry)

Adenosine receptor A1 [3] = target: T1, Adenosine receptor A1; assay: Binding affinity to NLuc human A1 adenosine receptor expressed in HEK293-A cells in presence of 1 uM SLV320 by NanoBRET binding assay; format: cell-based
[4] = target: T2, Adenosine receptor A1 (Homo sapiens); assay: Binding affinity to NLuc human A1 adenosine receptor expressed in HEK293-A cells assessed as maximal binding capacity in presence of 1 uM SLV320 by NanoBRET binding assay; format: cell-based; conditions: filed as antagonist
Adenosine receptor A2a [5] = target: T3, Adenosine receptor A2a (Homo sapiens, UniProt P29274); assay: Binding affinity to NLuc human A2A adenosine receptor expressed in HEK293-A cells in presence of 1 uM ZM241385 by NanoBRET binding assay; format: cell-based
T3 sequence (P29274 whole entry): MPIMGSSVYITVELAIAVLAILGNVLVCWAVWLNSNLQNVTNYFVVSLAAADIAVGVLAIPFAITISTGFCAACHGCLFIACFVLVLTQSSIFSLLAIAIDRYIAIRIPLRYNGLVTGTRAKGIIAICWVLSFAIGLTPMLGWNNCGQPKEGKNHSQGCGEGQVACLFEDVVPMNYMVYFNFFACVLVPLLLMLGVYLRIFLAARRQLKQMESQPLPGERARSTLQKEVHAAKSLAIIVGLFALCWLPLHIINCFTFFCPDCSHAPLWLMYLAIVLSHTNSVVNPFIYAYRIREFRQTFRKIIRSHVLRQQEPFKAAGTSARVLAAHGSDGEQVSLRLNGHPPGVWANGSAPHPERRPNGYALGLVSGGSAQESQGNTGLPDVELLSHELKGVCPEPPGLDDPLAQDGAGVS

Adenosine receptor A2a [6] = target: T3, Adenosine receptor A2a; assay: Binding affinity to NLuc human A2A adenosine receptor expressed in HEK293-A cells assessed as maximal binding capacity in presence of 1 uM ZM241385 by NanoBRET binding assay; format: cell-based; conditions: filed as antagonist
Adenosine receptor A2b = target: T4, Adenosine receptor A2b (Homo sapiens, UniProt P29275); assay: Binding affinity to NLuc human A2B adenosine receptor expressed in HEK293-A cells in presence of 1 uM PSB603 by NanoBRET binding assay; format: cell-based
T4 sequence (P29275 whole entry): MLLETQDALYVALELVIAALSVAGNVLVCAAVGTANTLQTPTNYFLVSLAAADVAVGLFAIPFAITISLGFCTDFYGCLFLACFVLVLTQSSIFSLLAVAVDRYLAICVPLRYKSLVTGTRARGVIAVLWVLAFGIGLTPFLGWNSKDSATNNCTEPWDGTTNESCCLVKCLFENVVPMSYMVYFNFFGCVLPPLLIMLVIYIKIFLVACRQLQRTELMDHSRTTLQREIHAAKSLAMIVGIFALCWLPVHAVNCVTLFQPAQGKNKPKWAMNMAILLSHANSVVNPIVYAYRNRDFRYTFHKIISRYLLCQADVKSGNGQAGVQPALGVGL

[7] = target: T5, Adenosine receptor A2b (Homo sapiens) (UniProt P29275); assay: Binding affinity to NLuc human A2B adenosine receptor expressed in HEK293-A cells assessed as maximal binding capacity in presence of 1 uM PSB603 by NanoBRET binding assay; format: cell-based; conditions: filed as antagonist
T5 sequence (whole entry): T4 sequence (P29275 whole entry)

Adenosine receptor A3 = target: T6, Adenosine receptor A3 (Homo sapiens, UniProt P0DMS8); assay: Binding affinity to NLuc human A3 adenosine receptor expressed in HEK293-A cells in presence of 1 uM MRS1220 by NanoBRET binding assay; format: cell-based
T6 sequence (P0DMS8 whole entry): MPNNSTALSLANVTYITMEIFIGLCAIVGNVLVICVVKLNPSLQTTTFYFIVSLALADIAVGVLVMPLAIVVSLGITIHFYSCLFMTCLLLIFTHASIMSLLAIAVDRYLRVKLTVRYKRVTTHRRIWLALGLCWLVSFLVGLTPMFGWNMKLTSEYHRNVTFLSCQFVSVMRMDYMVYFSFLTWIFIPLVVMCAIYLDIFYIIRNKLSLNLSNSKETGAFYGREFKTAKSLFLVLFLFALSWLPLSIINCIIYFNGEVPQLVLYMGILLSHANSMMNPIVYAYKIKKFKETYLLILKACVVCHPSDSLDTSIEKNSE

[8] = target: T7, Adenosine receptor A3 (Homo sapiens) (UniProt P0DMS8); assay: Binding affinity to NLuc human A3 adenosine receptor expressed in HEK293-A cells assessed as maximal binding capacity in presence of 1 uM MRS1220 by NanoBRET binding assay; format: cell-based; conditions: filed as antagonist
T7 sequence (whole entry): T6 sequence (P0DMS8 whole entry)

[9] = target: T2, Adenosine receptor A1 (Homo sapiens); assay: Antagonist activity at human A1 adenosine receptor expressed in Flp-In-CHO cells assessed as reduction in NECA-mediated inhibition of forskolin stimulated cAMP accumulation by cAMP assay; format: functional, cell-based; conditions: filed as antagonist
[10] = target: T2, Adenosine receptor A1 (Homo sapiens); assay: Binding affinity to NanoLuc-human A1 adenosine receptor expressed in HEK293-A cells assessed as binding constant (kon) by NanoBRET competitive binding assay; format: cell-based; conditions: filed as antagonist
[11] = target: T2, Adenosine receptor A1 (Homo sapiens); assay: Binding affinity to NanoLuc-human A1 adenosine receptor expressed in HEK293-A cells assessed as binding constant (koff) by NanoBRET competitive binding assay; format: cell-based; conditions: filed as antagonist
Adenosine receptor A1 [12] = target: T1, Adenosine receptor A1; assay: Binding affinity to NanoLuc-human A1 adenosine receptor expressed in HEK293-A cells assessed as kinetic dissociation constant by NanoBRET competitive binding assay; format: cell-based
Adenosine receptor A1 [13] = target: T1, Adenosine receptor A1; assay: Binding affinity to NanoLuc human A1 adenosine receptor expressed in HEK293-A cells in prescence of SLV320 by NanoBRET competitive binding assay; format: cell-based
Adenosine receptor A1 [14] = target: T1, Adenosine receptor A1; assay: Binding affinity to NanoLuc human A1 adenosine receptor expressed in HEK293-A cells in prescence of DPCPX by NanoBRET competitive binding assay; format: cell-based
Adenosine receptor A1 [15] = target: T1, Adenosine receptor A1; assay: Binding affinity to NanoLuc human A1 adenosine receptor expressed in HEK293-A cells in prescence of NECA by NanoBRET competitive binding assay; format: cell-based
Adenosine receptor A1 [16] = target: T1, Adenosine receptor A1; assay: Binding affinity to N-terminal NLuc tagged human A1 adenosine receptor expressed in Flp-In-CHO cells by competitive binding assay; format: cell-based
Adenosine receptor A1 [17] = target: T8, Adenosine receptor A1 (Rattus norvegicus, UniProt P25099); assay: Binding affinity to N-terminal NLuc tagged rat A1 adenosine receptor expressed in Flp-In-CHO cells by competitive binding assay; format: cell-based
T8 sequence (P25099 whole entry): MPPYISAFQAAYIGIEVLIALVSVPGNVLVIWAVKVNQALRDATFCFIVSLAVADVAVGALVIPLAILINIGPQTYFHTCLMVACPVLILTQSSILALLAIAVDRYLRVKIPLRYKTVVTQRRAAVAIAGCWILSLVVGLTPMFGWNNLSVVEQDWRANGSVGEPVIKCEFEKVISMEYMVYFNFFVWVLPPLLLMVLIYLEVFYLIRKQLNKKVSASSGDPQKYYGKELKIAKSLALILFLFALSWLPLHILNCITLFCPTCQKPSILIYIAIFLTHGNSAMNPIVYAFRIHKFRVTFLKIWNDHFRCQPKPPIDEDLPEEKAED

Structure (SMILES): CCCn1c(=O)c2[nH]c(C34CCC(C(=O)NCCCNC(=O)COCCNC(=O)OC(C)(C)C)(CC3)CC4)nc2n(CCC)c1=O
Ki (Adenosine receptor A1 [1]): 16.2 nM

Structure (SMILES): CCCn1c(=O)c2[nH]c(C34CC5CC(CC(C5)C3)C4)nc2n(CCCNC(=O)c2ccc(C(=O)NCCNC(=O)CCNC(=O)CCCCC[N+]3=C(/C=C/C=C/C=C4/N(C)c5ccc(S(=O)(=O)O)cc5C4(C)C)C(C)(C)c4cc(S(=O)(=O)[O-])ccc43)cc2)c1=O
Ki (Adenosine receptor A1 [1]): > 10000 nM

Structure (SMILES): CCCn1c(=O)c2[nH]c(C34CCC(C(=O)NCCNC(=O)CCCCCNC(=O)COc5ccc(/C=C/C6=[N+]7C(=Cc8ccc(-c9cccs9)n8[B-]7(F)F)C=C6)cc5)(CC3)CC4)nc2n(CCC)c1=O
Ki (Adenosine receptor A1 [1]): 20.4 nM

Structure (SMILES): CCCn1c(=O)c2[nH]c(C34CCC(C(=O)NCCCNC(=O)COCCOCCNC(=O)OC(C)(C)C)(CC3)CC4)nc2n(CCC)c1=O
Ki (Adenosine receptor A1 [1]): 22.4 nM

Structure (SMILES): CCCn1c(=O)c2[nH]c(C34CCC(C(=O)NCCNC(=O)COCCNC(=O)OC(C)(C)C)(CC3)CC4)nc2n(CCC)c1=O
Ki (Adenosine receptor A1 [1]): 13.8 nM

Structure (SMILES): CCCn1c(=O)c2[nH]c(-c3ccc(OCC(=O)NCCNC(=O)CCNC(=O)CCCCNC(=O)CCCCNC(=O)COc4ccc(/C=C/C5=[N+]6C(=Cc7ccc(-c8cccs8)n7[B-]6(F)F)C=C5)cc4)cc3)nc2n(CCC)c1=O
Kd (Adenosine receptor A1 [16]): 33.9 nM
Kd (Adenosine receptor A1 [17]): 35.5 nM

Structure (SMILES): CCCn1c(=O)c2[nH]c(C34CCC(C(=O)NCCNC(=O)COCCOCCNC(=O)OC(C)(C)C)(CC3)CC4)nc2n(CCC)c1=O
Ki (Adenosine receptor A1 [1]): 17.4 nM

Continued, values first:

Activity [2]: inactive
Ki (Adenosine receptor A1 [1]): 9.77 nM
Kd (Adenosine receptor A1 [3]): 3.16 nM
Bmax [4]: 0.019
Kd (Adenosine receptor A2a [5]): 50.1 nM
Bmax (Adenosine receptor A2a [6]): 0.003
Kd (Adenosine receptor A2b): 55 nM
Bmax [7]: 0.004
Kd (Adenosine receptor A3): 58.9 nM
Bmax [8]: 0.001
pKb [9]: 8.72
K [10]: 3.6 10^6/M/min
K [11]: 0.046 min⁻¹
Kd (Adenosine receptor A1 [12]): 13.2 nM
Ki (Adenosine receptor A1 [13]): 1.41 nM
Ki (Adenosine receptor A1 [14]): 20.9 nM
Ki (Adenosine receptor A1 [15]): 1100 nM
Structure (SMILES): CCCn1c(=O)c2[nH]c(C34CC5CC(CC(C5)C3)C4)nc2n(CCCNC(=O)c2ccc(C(=O)NCCNC(=O)CCNC(=O)CCCCCNC(=O)COc3ccc(/C=C/C4=[N+]5C(=Cc6ccc(-c7cccs7)n6[B-]5(F)F)C=C4)cc3)cc2)c1=O

Ki (Adenosine receptor A1 [1]): 4.37 nM
Structure (SMILES): CCCn1c(=O)c2[nH]c(C34CCC(C(=O)NCCNC(=O)CCNC(=O)CCNC(=O)OC(C)(C)C)(CC3)CC4)nc2n(CCC)c1=O

Ki (Adenosine receptor A1 [1]): 12.9 nM
Structure (SMILES): CCCn1c(=O)c2[nH]c(C34CCC(C(=O)NCCCNC(=O)CCNC(=O)CCNC(=O)OC(C)(C)C)(CC3)CC4)nc2n(CCC)c1=O

Ki (Adenosine receptor A1 [1]): 13.2 nM
Structure (SMILES): CCCn1c(=O)c2[nH]c(C34CCC(CCC(=O)NCCNC(=O)COCCOCCNC(=O)OC(C)(C)C)(CC3)CC4)nc2n(CCC)c1=O
